For data set [1] the following is noted: preservative not tested (nt) in emulsion; cited from earlier work.
Data set [2] is described as follows: Measurement of consistency (TAXT+ texture analyser). Type of data set: physicochemical. The settings on record: ingredient added to glycerol/Vaseline/liquid paraffin emulsion. As to the method: The measurement of consistency is carried out at room temperature (around 20° C.) in a 250 mL glass jar filled to 200 g. The measurement is performed using a TAXT+type texture analyser (Swantec). The consistency of the product is represented by the maximum resistance force of the probe in the product, which is directly proportional to the measured mass. The consistency value is expressed in g.
• 250 g glass jar filled to 200 g • P25 steel cylinder
• Pre-speed: 4 mm/s • Speed: 8 mm/s • Post-speed: 8 mm/s • Displacement: 20 mm • Triggering threshold: 5 g
Fill the container (glass jar) without introducing air into the product.
Tap the jar so as to pack down the cream and to obtain the smoothest surface possible.
Maintain the jar closed […] before carrying out the measurement.

For the compound `OB(O)O` [Boric acid], in data set [1], the Comments/other aspects result is “irritant”.
`O.O.O.O.O.O.O.O.O.O.[Na+].[Na+].[O-]B1OB2OB([O-])OB(O1)O2` [Sodium borate]: the Comments/other aspects result in data set [1] is “irritant”.
Regarding `CCCCC(O)CO` (stereo not shown) [1,2 hexanediol], in data set [2], the “Effect on the consistency and/or the viscosity of the emulsion” value is on record as “fluidification of the formula”.
With `CCCCC(CC)COCC(O)CO` (stereo not shown) [ethylhexyl glycerin], the “Effect on the consistency and/or the viscosity of the emulsion” value in data set [2] is on record as “fluidification of the formula”.

These data come from patent publication US20250025383A1, “EMOLLIENT COMPOSITION IN EMULSION FORM” (PIERRE FABRE MEDICAMENT, priority 2018, published 2025).
